Test results published in US8852556B2, “Animal model for evaluating vasomotor response in vivo” (Janssen Research & Development LLC, priority 2008, dated 2014).

How the values were obtained:
[1] = system: central ear artery of a rabbit; experiment: Rabbit central ear artery (CEA) vasomotor response, lumen diameter and area by ultrasonic imaging; assay type: in vivo; details: for CEA lumen area after norepinephrine and acetylcholine (acetylcholine-induced vasodilation response) / CEA lumen diameter after norepinephrine and acetylcholine (acetylcholine-induced vasodilation response): norepinephrine-preconstricted CEA; for CEA lumen area after norepinephrine and acetylcholine (acetylcholine-induced vasodilation response): vehicle group 0.6 mm^2; for CEA lumen diameter after norepinephrine and acetylcholine (acetylcholine-induced vasodilation response): vehicle group 0.8 mm
Method: A group of six rabbits was anesthetized with a mixture of ketamine (50 mg/kg)/xylazine ([…]) administered intramuscularly and placed on a warming pad to maintain body temperature. Rabbit ear pinnae were shaved and depilitated using an over-the-counter depilatory agent. A segment of about 2 cm of the dorsal surface over the CEA on the right ear was coated with warmed ultrasonic gel. The baseline diameter and area of the rabbit's CEA were evaluated using a 23.5 MHz ultrasonic probe (model RMV 708). The images were recorded on a VISUALSONICS VEVO 600 system where the CEA lumen diameters and areas were subsequently measured. The vessel lumen diameter and area were expressed as mean and standard error of the mean (SEM). Norepinephrine and acetylcholine were infused in the contralateral left ear vein through a 27-gauge butterfly needle infusion set connected to an infusion pump. Images were obtained at about 5 minute intervals throughout the infusion periods.
To confirm that acetylcholine-induced vasodilation was NO-dependent, a second group of six rabbits was dosed with either the nitric oxide synthase inhibitor L-NAME (400 μg/mL) mixed in TANG® flavored drinking water (N=3) or TANG® flavored drinking water alone (N=3) for 5 consecutive days. L-NAME, N(G)-nitro-L-arginine-methyl ester, is an arginine derivative that blocks normal nitric oxide-dependent vasodilation. The rabbit CEA were then imaged on day 6. The rabbits were allowed to recover for about one week and then in crossover fashion each group of 3 was given the opposite treatment for 5 days and then imaged on day 6.
(§1) In another group, six adult New Zealand male rabbits (2.5-3.5 kg) were dosed orally (gavage with feeding tube) with the Imwitor/Cremophor/Water vehicle for 4 consecutive days during week 1. The vehicle (10% Imwitor, 20% Cremophor RH40 and 70% water, a light milky compound solution) was given in a total volume of 3 mL/kg per day. On day 4, three hours after oral dosing with vehicle or drug, the rabbits were anesthetized and measured for the vehicle's effect on CEA vessel lumen as described above. After week 1, the rabbits were allowed to recover for 3 days and were then orally dosed with a test compound such as torcetrapib or compound 2 at about 30 mg/kg for 4 consecutive days during week 2. On the 4th day of week 2, rabbit CEA diameter changes in response to test compounds were assessed with infusion of norepinephrine followed by acetylcholine as described above. Rabbits were again allowed to recover for an additional week to allow for drug elimination and were then subjected to daily vehicle dosing and CEA diameter changes in response to test compounds were assessed as described above.
(§2) A series of 5 images (approximately 5 minutes apart) of the CEA were taken and used for baseline lumen diameter (mm) and area (mm^2) measurements, respectively. The adrenergic agonist norepinephrine was slowly infused at about 28 μg per minute and maintained for the duration of the procedure. An infusion of acetylcholine was administered in escalating doses at about 10, 17, 30 and 56 μg/min, each for 15 minutes, in conjunction with the infusion of norepinephrine. The images were collected several times during each infusion period of 15 minutes. After the final acetylcholine and concurrent norepinephrine infusion period, all infusions were terminated and the vessel was allowed to return to its original size. About two mL of blood were sampled from the non-imaged contralateral CEA immediately after the last measurement. All samples were collected into tubes containing EDTA and centrifuged at about 10,000 rpm for 6 minutes. Plasma was kept in −80° C. until analyzed for the concentration of the tested compounds. In addition, blood was taken from a naïve rabbit for generation of a standard drug concentration curve. […]

[2] = Plasma concentration of test compound after oral dosing in rabbits; assay type: in vivo, rabbit; details: 4 hours after the last dose; for concentration at 4 h: male, New Zealand, rabbit, plasma, rabbits, oral about 30 mg/kg for 4 days
Method: as §1
as §2, with “All samples were collected into tubes containing EDTA and centrifuged at about 10,000 rpm for 6 minutes.” left out, “compounds.” for “compounds. In addition, blood was taken from a naïve rabbit for generation of a standard drug concentration curve.”

[3] = system: systolic blood pressure; details: patients receiving torcetrapib; cited from earlier work
[4] = oral about 30 mg/kg for 4 days, compared to vehicle

| Structure (SMILES) | effect on acetylcholine-induced vasodilation in norepinephrine-preconstricted CEA [1, 4] | CEA lumen area after norepinephrine and acetylcholine (acetylcholine-induced vasodilation response) ([1]; oral dose 30 mg/kg for 4 days) [mm^2] | CEA lumen diameter after norepinephrine and acetylcholine (acetylcholine-induced vasodilation response) ([1]; oral dose 30 mg/kg for 4 days) | concentration at 4 h [2] [nM] | other results |
| --- | --- | --- | --- | --- | --- |
| O[C@@H](CN1c2cccc(-c3cccc(OC(F)(F)F)c3)c2CC[C@@H]1c1cccc(OC(F)(F)C(F)F)c1)C(F)(F)F [Compound 2, 1,1,1-Trifluoro-3-[2-{3-[(1,1,2,2-tetrafluoroethyl)oxy]phenyl}-5-{3-[(trifluoromethyl)oxy]phenyl}-3,4-dihydroquinolin-1(2H)-yl]propan-2-ol] | does not affect | ~0.6 | about 0.8 mm | 2580 ± 670 | plasma concentration of compound 2 relative to torcetrapib ([2]; same dose and regimen): approximately 2.5 fold |
| COC(=O)[C@@H](N)CCCNC(=N)N[N+](=O)[O-] [L-NAME, N(G)-nitro-L-arginine-methyl ester] | – | – | – | – | effect of L-NAME on acetylcholine-induced vasodilation in norepinephrine-preconstricted CEA ([1]; L-NAME 400 μg/mL in drinking water for 5 days, imaged day 6): inhibits this acetylcholine-induced vasodilation |
| NC[C@H](O)c1ccc(O)c(O)c1 [norepinephrine] | – | – | – | – | CEA lumen area during norepinephrine infusion ([1]; norepinephrine infused at about 28 μg per minute, baseline about 0.6-0.7 mm^2): about 0.2 mm^2; CEA lumen diameter during norepinephrine infusion ([1]; norepinephrine infused at about 28 μg per minute, baseline about 0.8-0.9 mm): about 0.5 mm |
| CCOC(=O)N1c2ccc(C(F)(F)F)cc2[C@@H](N(Cc2cc(C(F)(F)F)cc(C(F)(F)F)c2)C(=O)OC)C[C@H]1CC [torcetrapib, ethyl (2R,4S)-4-[[3,5-bis(trifluoromethyl)benzyl](methoxycarbonyl)amino]-2-ethyl-6-(trifluoromethyl)-3,4-dihydroquinoline-1(2H)-carboxylate] | inhibits the acetylcholine-induced vasodilation | 0.2 | about 0.45 mm | ~1010 | effect on baseline CEA lumen diameter and area (basal vascular tone) [1, 4]: caused a measurable baseline vasoconstriction; baseline CEA lumen diameter ([1]; oral dose 30 mg/kg for 4 days, prior to norepinephrine or acetylcholine, anesthetized rabbits, vehicle group 0.85 mm): about 0.55 mm; baseline CEA lumen area ([1]; oral dose 30 mg/kg for 4 days, prior to norepinephrine or acetylcholine, vehicle group 0.65 mm^2): about 0.3 mm^2; systolic blood pressure in patients [3]: higher systolic blood pressure |
